Assay [1] addresses T1, Photoreceptor-specific nuclear receptor (Homo sapiens, UniProt Q9Y5X4). Description: Agonist activity at NR2E3 by luciferase NCOR release assay in CHO cells. In kind it is functional, cell-based.
For assay [2], the target named is T1, Photoreceptor-specific nuclear receptor. Description: Agonist activity at NR2E3 by beta lactamase transactivation assay. In kind it is functional.

T1 sequence (Q9Y5X4 whole entry): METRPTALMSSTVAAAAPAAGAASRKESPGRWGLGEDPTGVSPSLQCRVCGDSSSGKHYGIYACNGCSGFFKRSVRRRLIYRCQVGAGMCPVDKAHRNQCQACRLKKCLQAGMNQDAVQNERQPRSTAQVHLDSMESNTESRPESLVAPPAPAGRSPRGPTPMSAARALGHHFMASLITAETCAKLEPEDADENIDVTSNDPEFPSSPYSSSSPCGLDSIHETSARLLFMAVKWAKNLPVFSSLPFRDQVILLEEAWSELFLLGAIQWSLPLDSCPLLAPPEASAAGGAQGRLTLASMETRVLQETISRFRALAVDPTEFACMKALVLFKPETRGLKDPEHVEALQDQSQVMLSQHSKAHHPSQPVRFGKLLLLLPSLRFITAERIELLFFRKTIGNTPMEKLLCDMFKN

As to `O=C(Nc1ccc(-c2nc3cc(NC(=O)C4CCC4)ccc3[nH]2)cc1)c1ccccc1Cl`, the 50% effective concentration (EC50) turned out to be 986 nM in assay [1] and 1330 nM in assay [2].

As to `N#CC1(C(=O)Nc2ccc3[nH]c(-c4ccc(NC(=O)c5ccccc5Cl)cc4)nc3c2)CC1`, the EC50 in assay [1] worked out at 10000 nM; in assay [2], 17000 nM.

Turning to `O=C(Nc1ccc(-c2nc3cc(NC(=O)[C@@H]4C[C@H]4F)ccc3[nH]2)cc1)c1ccccc1Cl`, the EC50 in assay [1] was 260 nM; in assay [2], 720 nM.

On to `O=C(Nc1ccc(-c2nc3cc(NC(=O)C4CC4(F)F)ccc3[nH]2)cc1)c1ccccc1Cl` (stereo unspecified), for which the EC50 in assay [1] came out at 3000 nM; in assay [2], 2100 nM.

Take `O=C(Nc1ccc2[nH]c(-c3ccc4c(c3)OCO4)nc2c1)c1ccccc1Cl`: the EC50 in assay [1] was 7200 nM; in assay [2] it was more than 25000 nM.

Regarding `CC1(C(=O)Nc2ccc3nc(-c4ccc(NC(=O)c5ccccc5Cl)cc4)[nH]c3c2)CC1`, the values for the half-maximal effective concentration (EC50) in assay [1] and in assay [2] were 2900 nM and 2500 nM, respectively.

Consider `O=C(Nc1ccc(-c2nc3ccc(NC(=O)C4CC4)cc3[nH]2)cc1)c1ccccc1Cl`, for which the EC50 in assay [1] is 35 nM; in assay [2] it was 141 nM.

Regarding `CC(C)(C)C(=O)Nc1ccc2nc(-c3ccc(NC(=O)c4ccccc4Cl)cc3)[nH]c2c1`, the EC50 in assay [1] came to 2610 nM; in assay [2] it was 6270 nM.

As for `Cc1ccccc1C(=O)Nc1ccc(-c2nc3ccc(NC(=O)c4ccccc4Cl)cc3[nH]2)cc1`, the EC50 came to 330 nM in assay [1] and 260 nM in assay [2].

Take `O=C(Nc1ccc(-c2nc3cc(NC(=O)c4ccccc4Cl)ccc3[nH]2)cc1)c1ccccc1F`: the EC50 in assay [1] is 170 nM; in assay [2], 270 nM.

On to `O=C(Nc1ccc2nc(-c3cnn(-c4ccc(F)cc4)c3)[nH]c2c1)c1ccccc1Cl`, for which the results for the concentration for a half-maximal effect (EC50) in assay [1] and in assay [2] were 4100 nM and more than 25000 nM, respectively.

Turning to `O=C(Nc1ccc2nc(-c3cc(Cl)cc(Cl)c3O)[nH]c2c1)c1ccccc1Cl`, the concentration for a half-maximal effect (EC50) in assay [1] is 4200 nM; in assay [2], more than 25000 nM.

For the compound `CC(C)C(=O)Nc1ccc2nc(-c3ccc(NC(=O)c4ccccc4Cl)cc3)[nH]c2c1`, the half-maximal effective concentration (EC50) in assay [1] worked out at 147 nM; in assay [2] it was 316 nM.

As for `O=C(Nc1ccc(-c2nc3cc(NC(=O)C4(c5ccccc5)CC4)ccc3[nH]2)cc1)c1ccccc1Cl`, the half-maximal effective concentration (EC50) in assay [1] was 370 nM; in assay [2], more than 25000 nM.

Regarding `O=C(Nc1cccc(-c2nc3cc(NC(=O)c4ccccc4Cl)ccc3[nH]2)c1)c1ccccc1Cl`, the concentration giving a half-maximal response (EC50) in assay [1] stood at 4100 nM; in assay [2] it was 10000 nM.

`O=C(Nc1ccc(-c2nc3ccc(NC(=O)C4CCCC4)cc3[nH]2)cc1)c1ccccc1Cl`: the values for the EC50 in assay [1] and in assay [2] were 1320 nM and 3160 nM, respectively.

Consider `O=C(Nc1ccc(-c2nc3cc(NC(=O)c4ccccc4Cl)ccc3[nH]2)cc1)c1ccccc1`, for which the EC50 in assay [1] came to 610 nM; in assay [2] it was 270 nM.

`O=C(Nc1ccc2nc(-c3ccc(NC(=O)c4cccnc4Cl)cc3)[nH]c2c1)c1ccccc1Cl`: the EC50 in assay [1] was 2200 nM; in assay [2] it was 4800 nM.

As a reminder, the EC50 is the concentration that produces a half-maximal response.

These data come from ChEMBL document CHEMBL1149483, “Identification of potent agonists of photoreceptor-specific nuclear receptor (NR2E3) and preparation of a radioligand” (Bioorg Med Chem Lett, 2006).
